Laboratory results: PubChem BioAssay AID328 (DTP/NCI, 2004)
Where “and” joins values, the source holds several entries; their conditions need not be identical. Equal values may be shown once. Toxic doses and inconclusive results are not listed. The calls were made as follows: active = survival T/C of 150% or more; inactive = T/C below 125% in these data. Residues, ends and D or L forms follow the SMILES beside them. *: point of attachment. Trt = c1ccc(C(c2ccccc2)(c2ccccc2)*)cc1; Bn = c1ccc(C*)cc1

Test system: BDF1 mice, P388 leukemia ip, median survival T/C
Experiment: NCI In Vivo Anticancer Drug Screen. Data for tumor model P388 Leukemia (intraperitoneal) in B6D2F1 (BDF1) mice
Details: endpoint: median survival time, higher = longer survival
In short: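 Steps: implant the tumour, treat one group with compound and another with vehicle, record survival, then divide treated by control.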

[1] = dose: 6.25 mg/kg/injection, schedule: Q04DX003 (ip), vehicle: water
[2] = dose: 12.5 mg/kg/injection, schedule: Q04DX003 (ip), vehicle: water
[3] = dose: 50.0 mg/kg/injection, schedule: Q04DX003 (ip), vehicle: water
[4] = dose: 100.0 mg/kg/injection, schedule: Q04DX003 (ip), vehicle: water
[5] = dose: 25.0 mg/kg/injection, schedule: Q01DX009 (ip), vehicle: saline
[6] = dose: 50.0 mg/kg/injection, schedule: Q01DX009 (ip), vehicle: saline
[7] = dose: 100.0 mg/kg/injection, schedule: Q01DX009 (ip), vehicle: saline
[8] = dose: 200.0 mg/kg/injection, schedule: Q01DX009 (ip), vehicle: saline
[9] = dose: 100.0 mg/kg/injection, schedule: Q01DX009 (ip), vehicle: Klucel (hydroxypropylcellulose) (HPC)
[10] = dose: 50.0 mg/kg/injection, schedule: Q01DX009 (ip), vehicle: Klucel (hydroxypropylcellulose) (HPC)
[11] = dose: 200.0 mg/kg/injection, schedule: Q01DX009 (ip), vehicle: Klucel (hydroxypropylcellulose) (HPC)
[12] = dose: 100.0 mg/kg/injection, schedule: Q01DX009 (ip), vehicle: saline with Tween-80
[13] = dose: 200.0 mg/kg/injection, schedule: Q01DX009 (ip), vehicle: saline with Tween-80
[14] = dose: 400.0 mg/kg/injection, schedule: Q01DX009 (ip), vehicle: saline with Tween-80
[15] = dose: 12.5 mg/kg/injection, schedule: Q01DX009 (ip), vehicle: saline
[16] = dose: 6.25 mg/kg/injection, schedule: Q01DX009 (ip), vehicle: saline
[17] = dose: 50.0 mg/kg/injection, schedule: Q04DX003 (ip), vehicle: saline
[18] = dose: 100.0 mg/kg/injection, schedule: Q04DX003 (ip), vehicle: saline
[19] = dose: 200.0 mg/kg/injection, schedule: Q04DX003 (ip), vehicle: saline
[20] = dose: 50.0 mg/kg/injection, schedule: Q01DX009 (ip), vehicle: saline with Tween-80
[21] = dose: 100.0 mg/kg/injection, schedule: Q04DX003 (ip), vehicle: saline with Tween-80
[22] = dose: 200.0 mg/kg/injection, schedule: Q04DX003 (ip), vehicle: saline with Tween-80
[23] = dose: 400.0 mg/kg/injection, schedule: Q04DX003 (ip), vehicle: saline with Tween-80

Measured: T/C

NCCCCC(N)C(=O)NC(CCCN=C(N)N)C(N)=O (stereo not drawn) (H-Lys-Arg-NH2; configuration not given here)
inactive: [1] 115 % of control | [2] 112 % of control | dose: 25.0 mg/kg/injection, schedule: Q01DX009 (ip), vehicle: water 101 % of control | dose: 25.0 mg/kg/injection, schedule: Q04DX003 (ip), vehicle: water 104 % of control | dose: 50.0 mg/kg/injection, schedule: Q01DX009 (ip), vehicle: water 108 % of control | [3] 97 % of control | dose: 100.0 mg/kg/injection, schedule: Q01DX009 (ip), vehicle: water 111 % of control | [4] 104 % of control | dose: 200.0 mg/kg/injection, schedule: Q01DX009 (ip), vehicle: water 106 % of control | dose: 400.0 mg/kg/injection, schedule: Q01DX009 (ip), vehicle: water 106 % of control

Br/C(=N\Nc1nn[nH]n1)c1ccncc1
inactive: [5] 90 % of control | [6] 100 % of control and 104 % of control | [7] 90 % of control and 100 % of control | [8] 95 % of control and 113 % of control

O=C(/C=C/c1cccc(Cl)c1)c1ccccc1
inactive: [9] 115 % of control

COC(=O)C(CSC(c1ccccc1)(c1ccccc1)c1ccccc1)NC(=O)C(CSCc1ccccc1)NC(C)=O (stereo unspecified) (Ac-Cys(Bn)-Cys(Trt)-OMe; configuration not given here)
inactive: dose: 100.0 mg/kg/injection, schedule: Q01DX009 (ip), vehicle: other 88 % of control | dose: 200.0 mg/kg/injection, schedule: Q01DX009 (ip), vehicle: other 93 % of control | dose: 400.0 mg/kg/injection, schedule: Q01DX009 (ip), vehicle: other 107 % of control

C=C1C(=O)OC(/C=C(\C)CO)C1C(C/C(C)=C/CO)OC(=O)/C(C)=C\C (stereo unspecified)
inactive: dose: 12.5 mg/kg/injection, schedule: Q01DX009 (ip), vehicle: Klucel (hydroxypropylcellulose) (HPC) 111 % of control | dose: 25.0 mg/kg/injection, schedule: Q01DX009 (ip), vehicle: Klucel (hydroxypropylcellulose) (HPC) 111 % of control | [10] 109 % of control | [9] 94 % of control | [11] 94 % of control

COc1ccc(/C=N/n2c(=O)[nH]nc(C)c2=O)c(OC)c1OC
inactive: [12] 100 % of control | [13] 122 % of control | [14] 95 % of control

CCCC1CC[N-]CC1.CCCC1CC[N-]CC1.CCCC1CC[N-]CC1.CCCC1CC[N-]CC1.O=C([O-])C(=O)[O-].O=C([O-])C(=O)[O-].[Cl][Rh][Cl].[Nb+5].[O-][O-].[O-][O-]
inactive: [15] 112 % of control | [5] 91 % of control and 100 % of control | [6] 87 % of control and 97 % of control and 98 % of control | [7] 87 % of control | [8] 99 % of control | dose: 400.0 mg/kg/injection, schedule: Q01DX009 (ip), vehicle: saline 91 % of control and 94 % of control

CSc1nc2nc(Cl)c(Cl)nc2[nH]1
inactive: [16] 104 % of control | [5] 96 % of control | dose: 25.0 mg/kg/injection, schedule: Q04DX003 (ip), vehicle: saline 99 % of control | [17] 102 % of control and 109 % of control | [7] 88 % of control | [18] 95 % of control and 103 % of control | [8] 104 % of control | [19] 109 % of control | dose: 400.0 mg/kg/injection, schedule: Q04DX003 (ip), vehicle: saline 103 % of control

COc1cccc2c1C(=O)c1c(O)c3c(c(O)c1C2=O)CC(O)(/C(C)=N\NC(=O)N/N=C(\C)C1(O)Cc2c(O)c4c(c(O)c2C(OC2CC(N)C(O)C(C)O2)C1)C(=O)c1c(OC)cccc1C4=O)CC3OC1CC(N)C(O)C(C)O1 (stereo unspecified)
inactive: dose: 3.13 mg/kg/injection, schedule: Q04DX003 (ip), vehicle: water 108 % of control | [1] 117 % of control | [2] 117 % of control
active: [3] 153 % of control | [4] 162 % of control

COc1ccc(C(C)=O)cc1CO/N=C1\CSCc2ccccc21
inactive: [20] 101 % of control | [12] 119 % of control | [13] 108 % of control

NNC(=O)C1CCC(=O)O1 (stereo unspecified)
inactive: dose: 75.0 mg/kg/injection, schedule: Q01DX009 (ip), vehicle: saline with Tween-80 98 % of control | dose: 150.0 mg/kg/injection, schedule: Q01DX009 (ip), vehicle: saline with Tween-80 91 % of control | dose: 300.0 mg/kg/injection, schedule: Q01DX009 (ip), vehicle: saline with Tween-80 100 % of control

O=C1C=CC(=O)N1CO
inactive: dose: 0.62 mg/kg/injection, schedule: Q04DX003 (ip), vehicle: saline 100 % of control | dose: 1.25 mg/kg/injection, schedule: Q01DX009 (ip), vehicle: saline 109 % of control | dose: 1.25 mg/kg/injection, schedule: Q04DX003 (ip), vehicle: saline 95 % of control | dose: 2.5 mg/kg/injection, schedule: Q01DX009 (ip), vehicle: saline 118 % of control | dose: 2.5 mg/kg/injection, schedule: Q04DX003 (ip), vehicle: saline 90 % of control | dose: 3.6 mg/kg/injection, schedule: Q04DX003 (ip), vehicle: saline 100 % of control | dose: 5.6 mg/kg/injection, schedule: Q04DX003 (ip), vehicle: saline 104 % of control | dose: 8.4 mg/kg/injection, schedule: Q04DX003 (ip), vehicle: saline 104 % of control

COC12C(COC(=O)NCCO)C3=C(C(=O)C(C)=C(N)C3=O)N1CC1NC12 (stereo unspecified)
active: [16] 209 % of control | [15] 228 % of control and 230 % of control | [5] 231 % of control and 254 % of control

CSC1SCC2C(=O)N(C)C(C(C)C)C(=O)OCC(NC(=O)c3cnc4ccccc4n3)C(=O)NC(C)C(=O)N(C)C1C(=O)N(C)C(C(C)C)C(=O)OCC(NC(=O)c1cnc3ccccc3n1)C(=O)NC(C)C(=O)N2C (stereo unspecified)
inactive: dose: 0.4 micrograms/kg/injection, schedule: Q01DX009 (ip), vehicle: saline with Tween-80 86 % of control | dose: 0.9 micrograms/kg/injection, schedule: Q01DX009 (ip), vehicle: saline with Tween-80 89 % of control | dose: 1.9 micrograms/kg/injection, schedule: Q01DX009 (ip), vehicle: saline with Tween-80 112 % of control | dose: 3.8 micrograms/kg/injection, schedule: Q01DX009 (ip), vehicle: saline with Tween-80 96 % of control | dose: 5.0 micrograms/kg/injection, schedule: Q01DX010 (ip), vehicle: saline 118 % of control | dose: 20.0 micrograms/kg/injection, schedule: Q01DX010 (ip), vehicle: saline 95 % of control
active: dose: 30.0 micrograms/kg/injection, schedule: Q01DX009 (ip), vehicle: saline with Tween-80 175 % of control

COc1ccc(C2=NNc3n[nH]c(=S)n3N2)cc1OC
inactive: [21] 100 % of control | [22] 100 % of control | [23] 91 % of control

O=COC1CC2CC1C1CCCC21 (stereo unspecified)
inactive: [20] 122 % of control | [17] 100 % of control | [12] 109 % of control | [18] 96 % of control | [19] 100 % of control

CCN(CC)c1ccc(NC(=O)NC(C)C)cc1
inactive: dose: 50.0 mg/kg/injection, schedule: Q04DX003 (ip), vehicle: saline with Tween-80 90 % of control | [21] 90 % of control | [22] 86 % of control

c1nc(SC2CCCC2)c2[nH]cnc2n1
inactive: [12] 100 % of control | [13] 116 % of control

CN1CC2CC(C1)c1cccc(=O)n1C2 (stereo unspecified)
inactive: dose: 5.0 mg/kg/injection, schedule: Q01DX010 (ip), vehicle: saline 86 % of control | dose: 10.0 mg/kg/injection, schedule: Q01DX010 (ip), vehicle: saline 109 % of control | dose: 20.0 mg/kg/injection, schedule: Q01DX010 (ip), vehicle: saline 104 % of control | dose: 40.0 mg/kg/injection, schedule: Q01DX010 (ip), vehicle: saline 95 % of control

CC(C)NC1(C(N)=O)CCN(Cc2ccccc2)CC1
inactive: [10] 95 % of control | [9] 91 % of control | [11] 95 % of control

COc1ccc(C(C#N)Nc2ccccc2)cc1 (stereo unspecified)
inactive: [12] 105 % of control | [21] 109 % of control | [13] 110 % of control | [22] 100 % of control | [14] 95 % of control | [23] 109 % of control
